What all share (test): biochemical
Assay [1] addresses ABL1 (Homo sapiens, UniProt P00519).
The target in assay [2] is ABL2 (Homo sapiens, UniProt P42684).
The target of assay [3] is BTK (Homo sapiens, UniProt Q06187).
Assay [4] concerns the target T1, MAP4K3 (Homo sapiens, UniProt Q8IVH8).
T1 sequence (Q8IVH8 1-894): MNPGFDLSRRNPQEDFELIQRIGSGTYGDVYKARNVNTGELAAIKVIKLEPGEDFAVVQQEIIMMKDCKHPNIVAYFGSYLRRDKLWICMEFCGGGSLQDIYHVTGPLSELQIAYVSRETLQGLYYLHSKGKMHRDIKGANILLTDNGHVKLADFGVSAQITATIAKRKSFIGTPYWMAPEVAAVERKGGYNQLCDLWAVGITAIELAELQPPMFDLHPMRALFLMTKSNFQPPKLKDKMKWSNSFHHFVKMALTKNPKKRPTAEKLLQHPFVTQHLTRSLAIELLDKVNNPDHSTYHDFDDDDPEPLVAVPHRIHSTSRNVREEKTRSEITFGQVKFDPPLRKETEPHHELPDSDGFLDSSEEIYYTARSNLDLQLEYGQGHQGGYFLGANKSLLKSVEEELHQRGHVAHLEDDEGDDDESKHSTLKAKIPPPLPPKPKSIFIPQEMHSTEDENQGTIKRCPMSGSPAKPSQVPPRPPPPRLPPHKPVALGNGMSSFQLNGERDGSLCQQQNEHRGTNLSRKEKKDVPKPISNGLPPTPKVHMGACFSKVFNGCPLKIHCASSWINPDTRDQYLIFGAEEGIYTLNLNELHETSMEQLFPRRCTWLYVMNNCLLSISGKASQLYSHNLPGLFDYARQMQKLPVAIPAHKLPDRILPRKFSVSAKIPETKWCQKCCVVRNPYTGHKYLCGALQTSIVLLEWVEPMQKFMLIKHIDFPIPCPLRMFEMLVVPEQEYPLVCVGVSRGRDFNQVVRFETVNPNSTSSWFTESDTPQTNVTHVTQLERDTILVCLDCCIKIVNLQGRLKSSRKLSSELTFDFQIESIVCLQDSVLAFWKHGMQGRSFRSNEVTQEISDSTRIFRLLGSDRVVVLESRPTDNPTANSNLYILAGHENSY

Broadly, the Kd is a measure of binding affinity in units of concentration. Read a low Kd as tighter binding.

Sequence of ABL1 (P00519 whole entry): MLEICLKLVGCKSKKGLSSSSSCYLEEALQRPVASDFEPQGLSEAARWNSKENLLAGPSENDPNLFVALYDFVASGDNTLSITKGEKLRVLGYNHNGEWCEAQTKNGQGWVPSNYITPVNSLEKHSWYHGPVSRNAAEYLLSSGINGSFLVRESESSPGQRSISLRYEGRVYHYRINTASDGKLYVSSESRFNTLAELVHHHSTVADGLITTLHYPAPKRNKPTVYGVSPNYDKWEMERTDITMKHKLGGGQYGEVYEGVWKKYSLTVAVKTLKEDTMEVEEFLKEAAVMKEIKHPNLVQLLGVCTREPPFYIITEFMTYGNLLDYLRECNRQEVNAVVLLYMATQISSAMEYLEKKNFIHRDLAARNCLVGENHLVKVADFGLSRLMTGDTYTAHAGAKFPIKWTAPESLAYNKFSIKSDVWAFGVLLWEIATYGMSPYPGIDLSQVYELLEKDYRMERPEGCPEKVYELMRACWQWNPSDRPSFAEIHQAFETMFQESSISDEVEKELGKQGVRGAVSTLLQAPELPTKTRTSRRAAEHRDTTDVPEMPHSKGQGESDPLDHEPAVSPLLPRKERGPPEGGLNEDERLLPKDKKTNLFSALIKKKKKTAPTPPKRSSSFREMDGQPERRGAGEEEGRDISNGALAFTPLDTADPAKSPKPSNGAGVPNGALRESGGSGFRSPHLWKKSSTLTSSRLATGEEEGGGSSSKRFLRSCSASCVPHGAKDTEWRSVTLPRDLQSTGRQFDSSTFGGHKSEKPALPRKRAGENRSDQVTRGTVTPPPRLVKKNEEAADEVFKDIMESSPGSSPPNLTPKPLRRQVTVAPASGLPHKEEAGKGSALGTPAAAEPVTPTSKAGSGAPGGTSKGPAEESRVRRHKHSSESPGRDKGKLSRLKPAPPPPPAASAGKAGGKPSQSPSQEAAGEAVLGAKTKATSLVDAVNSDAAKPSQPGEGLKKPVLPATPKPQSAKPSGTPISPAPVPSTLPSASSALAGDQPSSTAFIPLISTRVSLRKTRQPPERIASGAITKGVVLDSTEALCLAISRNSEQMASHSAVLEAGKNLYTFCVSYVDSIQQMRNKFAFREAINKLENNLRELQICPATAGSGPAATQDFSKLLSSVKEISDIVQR
Sequence of ABL2 (P42684 whole entry): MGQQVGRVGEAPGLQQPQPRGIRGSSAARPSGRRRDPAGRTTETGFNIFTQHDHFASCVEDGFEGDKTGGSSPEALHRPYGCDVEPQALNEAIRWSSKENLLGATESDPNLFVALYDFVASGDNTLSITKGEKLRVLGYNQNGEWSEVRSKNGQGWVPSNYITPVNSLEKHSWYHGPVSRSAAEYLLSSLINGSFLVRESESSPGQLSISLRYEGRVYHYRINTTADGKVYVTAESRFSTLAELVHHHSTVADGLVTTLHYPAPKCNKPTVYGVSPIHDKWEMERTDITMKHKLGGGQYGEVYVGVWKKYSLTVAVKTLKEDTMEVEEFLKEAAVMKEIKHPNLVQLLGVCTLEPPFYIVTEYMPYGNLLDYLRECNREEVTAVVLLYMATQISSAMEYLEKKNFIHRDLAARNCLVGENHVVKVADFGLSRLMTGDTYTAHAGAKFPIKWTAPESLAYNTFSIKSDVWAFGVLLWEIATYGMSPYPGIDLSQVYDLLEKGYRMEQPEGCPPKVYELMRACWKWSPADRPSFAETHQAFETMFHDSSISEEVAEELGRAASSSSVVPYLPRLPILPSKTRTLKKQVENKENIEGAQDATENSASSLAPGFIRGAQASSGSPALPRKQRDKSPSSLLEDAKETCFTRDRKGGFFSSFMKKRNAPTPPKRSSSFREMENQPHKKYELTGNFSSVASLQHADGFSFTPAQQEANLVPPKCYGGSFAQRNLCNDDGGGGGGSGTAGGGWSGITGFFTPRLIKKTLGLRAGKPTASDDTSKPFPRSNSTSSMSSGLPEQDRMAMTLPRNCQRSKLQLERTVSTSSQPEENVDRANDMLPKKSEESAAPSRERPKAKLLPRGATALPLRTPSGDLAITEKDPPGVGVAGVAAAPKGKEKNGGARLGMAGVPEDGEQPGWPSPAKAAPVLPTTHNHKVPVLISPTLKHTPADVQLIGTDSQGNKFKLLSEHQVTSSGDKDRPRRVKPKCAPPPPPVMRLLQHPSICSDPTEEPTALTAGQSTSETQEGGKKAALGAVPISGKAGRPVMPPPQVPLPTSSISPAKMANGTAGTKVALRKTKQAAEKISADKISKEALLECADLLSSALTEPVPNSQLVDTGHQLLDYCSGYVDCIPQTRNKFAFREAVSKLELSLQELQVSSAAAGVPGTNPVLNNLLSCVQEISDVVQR
Sequence of BTK (Q06187 whole entry): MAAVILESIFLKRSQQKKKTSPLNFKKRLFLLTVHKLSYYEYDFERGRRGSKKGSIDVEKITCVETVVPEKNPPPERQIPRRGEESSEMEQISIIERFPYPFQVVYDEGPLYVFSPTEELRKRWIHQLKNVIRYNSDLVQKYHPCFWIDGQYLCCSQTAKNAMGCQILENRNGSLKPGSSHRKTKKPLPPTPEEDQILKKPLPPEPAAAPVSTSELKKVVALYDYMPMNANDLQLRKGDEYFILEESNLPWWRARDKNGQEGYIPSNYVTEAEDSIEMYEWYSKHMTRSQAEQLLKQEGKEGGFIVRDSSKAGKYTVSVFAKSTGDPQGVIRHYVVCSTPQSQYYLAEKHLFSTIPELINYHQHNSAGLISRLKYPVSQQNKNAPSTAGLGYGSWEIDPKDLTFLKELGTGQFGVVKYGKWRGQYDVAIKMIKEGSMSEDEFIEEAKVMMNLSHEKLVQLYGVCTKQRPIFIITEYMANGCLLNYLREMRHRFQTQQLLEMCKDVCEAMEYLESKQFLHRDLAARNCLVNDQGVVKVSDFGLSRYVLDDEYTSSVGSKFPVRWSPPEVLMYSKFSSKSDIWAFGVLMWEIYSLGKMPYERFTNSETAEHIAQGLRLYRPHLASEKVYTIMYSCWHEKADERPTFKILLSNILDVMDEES

`COc1ccc2c(C(=O)Nc3ccc(NC(=O)c4nn(C5CCN(C(=O)CC(C)(C)C#N)CC5)c5ccc(F)cc45)cc3Cl)cnn2c1` [SI-3]: the equilibrium dissociation constant (Kd) in assay [1] was 0.353 µM; in assay [2] it was 0.0402 µM; in assay [3] it was 3.08 µM; in assay [4] it was 9.7 µM.

The record behind these values is PMC12823440, “Inhibitors supercharge kinase turnover through native proteolytic circuits” (Nature, 2025).
